Experimental data from US4540697A, “Aminopropanol derivatives of 2-hydroxy-β-phenyl-propiophenones, pharmaceutical compositions and use” (priority 1984, dated 1985).
Converted amounts (≈) assume the structure as drawn. Counter-ions that a name gives are not always drawn.

Legend:
[1] = system: aconitine arrhythmia in rats; assay: Antiarrhythmic action on aconitine arrhythmia in rats; assay type: in vivo, rat (strain: Sprague Dawley); conditions: Rattus norvegicus, po, 1 h, peroral administration, aconitine infused 60 minutes after substance, read-out: ED 50%: dose which causes a 50% extension in the period of aconitine infusion
Procedure: Moreover, the novel compounds were administered orally or intravenously to male rats (strain: Sprague Dawley, weight: 200-230 g) to determine the antiarrhythmic activity. 45 minutes later, the animals were anesthetized by intraperitoneal administration of 100 mg/kg of thiobutabarbital sodium. Aconitine served as the arrhythmogenic substance, and was infused intravenously at a dosage rate of 0.005 mg/kg/minute 60 minutes after administration of the substance. In untreated animals (n=52), arrhythmias appeared in the ECG after 2.74±0.07 minutes. These arrhythmias can be delayed by antiarrhythmic drugs, as a function of the dose.
The dose which extends the infusion period by 50% (ED 50%) was determined from the linear relationship between the logarithm of the dose (mg/kg) of the trial substance and the relative extension of the period of aconitine infusion (Δ%).
(§1) The known antiarrhythmic drug propafenone [2-(2-hydroxy-3-propylamino-propoxy)-3-phenyl-propiophenone hydrochloride]was used as the comparative substance.

[2] = system: isolated left atrium of male guineapigs; assay: Antiarrhythmic action on the isolated guineapig atrium (drop in maximum rhythmicity); parameters: species or system guineapig (strain: Pirbright white); conditions: Cavia porcellus, Tyrode's solution pH 7.4, 32° C., read-out: Maximum rhythmicity (ED 50%): concentration which causes a 50% drop in the maximum rhythmicity
Procedure: The antiarrhythmic activity of the compounds according to the invention was determined on the isolated left atrium of male guineapigs (strain: Pirbright white, weight: 350 to 450 g).
Atria suspended in an organ bath (volume: 125 ml) with carbogen-saturated Tyrode's solution (pH 7.4, 32° C.) were pre-loaded with 1.0 g and subjected to square-wave pulses having a base rhythm of 1 Hz and twice the excitation threshold (rheobase: 0.2-1.4 V, chronaxia: 0.3-0.5 msec).
The frequency (Hz) up to which contraction follows each stimulus (maximum rhythmicity, MR) was determined, by automatically and continuously increasing the frequency, as a criterion of the antiarrhythmic activity. The concentration which causes a drop in the maximum rhythmicity of 50% (EC 50%) was calculated from the linear relationship between the logarithm of the concentration (mg/l) and the relative drop in the maximum rhythmicity (%).
as §1

Compound	ED50 [1] [mg/kg]	EC50 [2] [µg/mL]
COCCNCC(O)COc1ccccc1C(=O)CCc1ccccc1 (stereo not drawn) [Example 9, 2-[2'-Hydroxy-3'-(2-methoxyethylamino)-propoxy]-β-phenyl-propiophenone hydrochloride]	27	0.757
CCCNCC(O)COc1ccccc1C(=O)CCc1ccc(N(C)C)cc1 (stereo not drawn) [Example 35, 2-(2'-Hydroxy-3'-n-propylamino-propoxy)-β-(4-dimethylaminophenyl)-propiophenone hydrochloride]	1.99	1.65
CSCC(C)NCC(O)COc1ccccc1C(=O)CCc1ccccc1 (stereo not drawn) [Example 10, 2-[2'-Hydroxy-3'-(3-thiomethoxyprop-2-ylamino)-propoxy]-β-phenyl-propiophenone hydrochloride]	46.4	1.13
COCC(C)NCC(O)COc1ccccc1C(=O)CCc1ccccc1 (stereo not drawn) [Example 2, 2-[2'-Hydroxy-3'-(3-methoxyprop-2-ylamino)-propoxy]-β-phenyl-propiophenone hydrochloride]	46.4	0.874
CN(C)c1ccc(CCC(=O)c2ccccc2OCC(O)CNC2CC2)cc1 (stereo not drawn) [Example 57, 2-(2'-Hydroxy-3'-cyclopropylamino-propoxy)-β-(4-dimethylaminophenyl)-propiophenone hydrochloride]	1.78	2.04
CN1CCN(CC(O)COc2ccccc2C(=O)CCc2ccc(N(C)C)cc2)CC1 (stereo not drawn) [Example 67, 2-[2'-Hydroxy-3'-(4-methyl-piperazin-1-yl)-propoxy]-β-(4-dimethylaminophenyl)-propiophenone hydrochloride]	2.15	0.658
CCCNCC(O)COc1ccccc1C(=O)CCc1ccc(C)cc1 (stereo not drawn) [Example 34, 2-(2'-Hydroxy-3'-n-propylamino-propoxy)-β-(4-methylphenyl)-propiophenone hydrochloride]	21.5	1.72
CCCNCC(O)COc1ccccc1C(=O)CCc1ccc(F)cc1 (stereo not drawn) [Example 33, 2-(2'-Hydroxy-3'-n-propylamino-propoxy)-β-(4-fluorophenyl)-propiophenone hydrochloride]	24.5	2.05
CCCNCC(O)COc1ccccc1C(=O)CCc1cc(OC)c(OC)c(OC)c1 (stereo not drawn) [Example 49, 2-(2'-Hydroxy-3'-n-propylaminopropoxy)-β-(3,4,5-trimethoxyphenyl)-propiophenone]	31.6	1.82 (≈ 4.22 µM)
CN(C)c1ccc(CCC(=O)c2ccccc2OCC(O)CN2CCCCC2)cc1 (stereo not drawn) [Example 55, 2-(2'-Hydroxy-3'-piperidino-propoxy)-β-(4-dimethylaminophenyl)-propiophenone]	5.7	0.854 (≈ 2.08 µM)
O=C(CCc1ccccc1)c1ccccc1OCC(O)CN1CCC(O)CC1 (stereo not drawn) [Example 23, 2-[2'-Hydroxy-3'-(4-hydroxypiperidino)-propoxy]-β-phenyl-propiophenone hydrochloride]	31.6	1.64
O=C(CCc1ccccc1)c1ccccc1OCC(O)CN1CCC(O)(c2ccccc2)CC1 (stereo not drawn) [Example 24, 2-[2'-Hydroxy-3'-(4-hydroxy-4-phenyl-piperidino)-propoxy]-β-phenyl-propiophenone hydrochloride]	25.4	2.65
O=C(CCc1ccccc1)c1ccccc1OCC(O)CNC1CC1 (stereo not drawn) [Example 3, 2-(2'-Hydroxy-3'-cyclopropylamino-propoxy)-β-phenylpropiophenone hydrochloride]	38.2	1.51
COCC(C)NCC(O)COc1ccccc1C(=O)CCc1ccc(N(C)C)cc1 (stereo not drawn) [Example 60, 2-[2'-Hydroxy-3'-(3-methoxy-prop-2-ylamino)-propoxy]-β-(4-dimethylaminophenyl)-propiophenone hydrochloride]	3.25	1.82
CC(CCO)NCC(O)COc1ccccc1C(=O)CCc1ccccc1 (stereo not drawn) [Example 1, 2-[2'-Hydroxy-3'-(4-hydroxybut-2-ylamino)-propoxy]-β-phenyl-propiophenone hydrochloride]	15	1.9
CN1CCN(CC(O)COc2ccccc2C(=O)CCc2ccccc2)CC1 (stereo not drawn) [Example 25, 2-[2'-Hydroxy-3'-(4-methyl-piperazin-1-yl)-propoxy]-β-phenyl-propiophenone bis-hydrochloride]	11.2	1.01
CCCCNCC(O)COc1ccccc1C(=O)CCc1ccc(N(C)C)cc1 (stereo not drawn) [Example 58, 2-(2'-Hydroxy-3'-n-butylamino-propoxy)-β-(4-dimethylaminophenyl)-propiophenone hydrochloride]	2.33	1.92
